Patent US8859463B2, “Method for controlling noxious organisms” (Sumitomo Chemical Company, Limited, priority 2009, dated 2014)

Tests used:
Assay type in all cases: in vivo
[1] = test system: Spodoptera litura; test: Insecticidal effect (protective value), corn pot test, Example 4; conditions: clothianidin none, day 3 after release
Description: The evaluation of the insecticidal effect was performed by determining the life and death of the insects at the time of the investigation and calculating the protective value according to the following equation; Protective Value (%)=100×(1−T/C) wherein the symbols have the following meanings;
C: The number of insects at the time of observation in an untreated section: and
T: The number of insects at the time of observation in a treated section.
In addition, the clothianidin suspension was attached to the corn seeds in a similar manner except that it was used in an amount of 217.5 μL.
Thereafter, the test pot was placed in a greenhouse. On day 22 after corn sowing, 10 fourth-instar larvae of Spodoptera litura were released in the pot and the whole pot was then covered with a nylon cloth.
On day 3 after release of Spodoptera litura, the insecticidal effect was examined.

[2] = test system: Ipomoea hederacea; test: Herbicidal effect, soybean Wagner pot test, Example 6; conditions: clothianidin none; flumioxazin 25 g/ha; day 11 after sowing; scale 0 to 100
Source text: A soil was packed in a 1/5000a Wagner pot. The above soybean seeds were sown in the Wagner pot at a rate of two seeds per pot, and the seeds of Ipomoea hederacea were sown in the pot at a rate of three seeds per pot.
On day 11 after sowing of the seeds of soybean and Ipomoea hederacea, the herbicidal effect and phytotoxicity were examined.

[3] = test system: Ipomoea hederacea; test: Herbicidal activity, corn pot test, Example 16; conditions: azole seed treatment none, flumioxazin 50 g/ha, twelve days after sowing
Description: In a glass container measuring 60 mm in inner diameter and 20 mm in height, 8 μl of a prothioconazole emulsifiable concentrate (emulsifiable concentrate containing 25% prothioconazole, manufactured by Bayer Crop Science Inc. under the trade name of Proline) and 20 corn seeds were placed. The prothioconazole emulsifiable concentrate was adhered to the corn seeds by shaking this plastic cup by hand. In the same manner, 8 μl of a difenoconazole emulsifiable concentrate (emulsifiable concentrate containing 25% difenoconazole, manufactured by Syngenta under the trade name of Score) was adhered to 20 corn seeds. In the same manner, 50 mg of a tebuconazole suspension (suspension containing 20% tebuconazole, manufactured by Hokko Chemical Industry under the trade name of ONLY ONE Flowable) was adhered to 20 corn seeds.
A plastic pot measuring 194 mm in inner diameter and 176 mm in height was filled with the soil. In this pot, 3 corn seeds were sown per 1 pot and 10 seeds of Ipomoea hederacea were sown per 1 pot. […]

[4] = test system: Ipomoea lacunosa; test: Herbicidal activity, corn pot test, Example 76; conditions: metalaxyl-M none, flumioxazin 25 g/ha, ten days after sowing
Description: In a glass container measuring 60 mm in inner diameter and 20 mm in height, 15 mg of a metalaxyl-M emulsifiable concentrate (emulsifiable concentrate containing 33.3% metalaxyl-M, manufactured by Syngenta under the trade name of Apron XL) and 25 corn seeds were placed. After capping this glass container, the metalaxyl-M emulsifiable concentrate was adhered to the corn seeds by shaking the glass container by hand. In the same manner, 33 mg of the metalaxyl-M emulsifiable concentrate was adhered to the corn seeds.
A plastic pot measuring 194 mm in inner diameter and 176 mm in height was filled with the soil. In this pot, 2 corn seeds were sown per 1 pot and 10 seeds of Ipomoea lacunosa were sown per 1 pot. On the day of sowing of the corn seeds, after sowing the corn seeds, a water diluted solution (24.5 mg of product/liter) of a flumioxazin granular wettable powder (granular wettable powder containing 51% flumioxazin, manufactured by Valent USA Corporation under the trade name of Valor SX), a water diluted solution (66.7 mg of product/liter) of a sulfentrazone granular wettable powder (granular wettable powder containing 75% sulfentrazone manufactured by FMC Corporation under the trade name of Cover), a water diluted solution (15 mg/liter) of saflufenacil and a water diluted solution (100 mg/liter) of oxyfluorfen were uniformly sprayed over a surface of the soil in each amount described in Tables 28 to 31, using a sprayer. The water diluted solutions of saflufenacil and oxyfluorfen were prepared by dissolving each predetermined amount of saflufenacil and oxyfluorfen in acetone containing 2% (w/v) Tween 20 and diluting each solution with water so as to adjust the concentration of acetone to 10% by volume.
Ten days after sowing the seeds of corn and Ipomoea lacunosa, herbicidal activity was examined.

C#CCN1C(=O)COc2cc(F)c(N3C(=O)C4=C(CCCC4)C3=O)cc21 [Flumioxazin, flumioxazin]
Protective Value ([1]; flumioxazin 12.5 g/ha): 0% | Protective Value ([1]; flumioxazin 50 g/ha): 5% | Evaluation of Effect on Weeds [2]: 25 | Herbicidal activity on Ipomoea hederacea [3]: 88 | Herbicidal activity [4]: 40
